Source: patent US4980377A, “1-(aminophenyl)-2-aminopropanone derivatives” (Laboratoire L. Lafon, priority 1984, dated 1990)
“Also recorded” adds a separate entry of the source.

Assays:
CNS [1] = experiment: Complementary tests by oral (gastric) administration; assay type: in vivo; conditions: gastric vs i.p.
mice [2] = experiment: Interaction with apomorphine in mice; assay type: in vivo, mouse; conditions: i.p.
Protocol: Groups of 6 mice receive CRL 41 153 0.5 hour before the subcutaneous injection of 1 or 16 mg/kg of apomorphine.

mice [3] = experiment: Four plate test, traction and electric shock; assay type: in vivo, mouse; conditions: i.p.
Protocol: The test is performed on groups of 10 mice 30 minutes after the administration of CRL 41 153.

mice [4] = experiment: Interaction with reserpine; assay type: in vivo, mouse; conditions: i.p.
Protocol: Four hours after the intraperitoneal injection of 2.5 mg/kg of reserpine, groups of 6 mice receive CRL 41 153.

CNS [5] = experiment: Neuropsychopharmacological profile as a whole; assay type: in vivo, mice and rats
Protocol: (§1) In the neuropsychopharmacological study which follows, a solution of CRL 41 153 in distilled water (pH 1.5) was administered intraperitoneally in a volume of 20 ml/kg to male mice and 5 ml/kg to male rats.

rats [6] = experiment: Overall behavior and reactivities in rats; assay type: in vivo, rat; conditions: dose not stated
Protocol: as §1
(§2) Groups of three animals are observed before and then 0.25 hour, 0.50 hour, 1 hour, 2 hours, 3 hours and 24 hours after the administration of CRL 41 153.

mice [7] = experiment: Motility reduced by hypoxic aggression; assay type: in vivo, mouse; conditions: i.p.
Protocol: Half an hour after they have received CRL 41 153, the mice (10 per dose, 20 control animals) are subjected to acute hypobaric anoxia [pressure reduction of 600 mm Hg (i.e. about 8×10^4 Pa) in 90 seconds; release of vacuum in 45 seconds] and are then placed in an actimeter, where their motility is recorded for 10 minutes.

mice [8] = experiment: Motility reduced by habituation to the enclosure; assay type: in vivo, mouse; conditions: i.p.
Protocol: After they have stayed In the actimeters for 18 hours, (he mice (6 per dose, 12 control animals) receive CRL 41 153. They are immediately returned to their respective enclosures and, half an hour later, their motility is recorded for 30 minutes.

[9] = test system: nigrostriatal dopaminergic system; experiment: Interaction with alpha-methyltyrosine on stereotypies (difference from amphetamine); conditions: α-methyltyrosine (catecholamine synthesis blocked)
rats [10] = experiment: Interaction with apomorphine in rats; assay type: in vivo, rat; conditions: i.p.
Protocol: CRL 41 153 is administered to groups of 6 rats 0.5 hour before the subcutaneous injection of 0.5 mg/kg of apomorphine.

rats [11] = experiment: Interaction with amphetamine; assay type: in vivo, rat; conditions: i.p.
Protocol: Amphetamine (2 mg/kg) is injected intraperitoneally into groups of 6 rats 30 minutes after the administration of CRL 41 153. […] 4 mg/kg and 16 mg/kg, CRL 41 153 potentiates the intensity and duration of the stereotypies induced by amphetamine.

mice [12] = experiment: Particular toxicity in grouped mice; conditions: mice
Protocol: The number of dead animals is noted after 1 hour, 2 hours, 3 hours, 4 hours and 24 hours.

mice [13] = experiment: Overall behavior and reactivities in mice; assay type: in vivo, mouse; conditions: dose not stated
Protocol: as §1, §2

mice [14] = experiment: Interaction with barbital; assay type: in vivo, mouse; conditions: i.p., barbital 220 mg/kg
Protocol: Half an hour after the administration of CRL 41 153, groups of 10 mice receive an intraperitoneal injection of barbital (220 mg/kg).

mice [15] = experiment: Behavioral despair; assay type: in vivo, mouse; conditions: forcibly immersed mice, i.p.
Description: Half an hour after they have received CRL 41 153, groups of 6 mice are placed in a beaker filled with water to a height of 6 cm. The total period of immobility between the 2nd and 6th minutes following immersion is noted.

mice [16] = experiment: Interaction with oxotremorine; assay type: in vivo, mouse; conditions: i.p.
Protocol: CRL 41 153 is administered to groups of 6 mice 0.5 hour before the intraperitoneal injection of 0.5 mg/kg of oxotremorine.

[17] = test system: gravid White New Zealand female rabbits; experiment: Teratogenicity in gravid White New Zealand rabbits; assay type: in vivo, rabbit; conditions: day 5 to day 18 of gestation; for Affected foetuses, %: normal limit 1.5%
Method in brief: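 Fetuses harvested by cesarean on gestation day 29 were scored for number and for any malformation (limb blockade, anury, tail or skull defects, exencephaly).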

mice [18] = experiment: Spontaneous motility; assay type: in vivo, mouse; conditions: i.p.
Protocol: 0.5 hour after they have received CRL 41 153, the mice (6 per dose, 12 control animals) are placed in an actimeter, where their motility is recorded for 30 minutes.

CC(NC(C)(C)C)C(=O)c1ccc(N)cc1 (centres unmarked) [CRL 41 178]
Action on gastric (oral) administration compared with intraperitoneal (CNS [1]): same types of action as after intraperitoneal administration; also recorded: the antidepressant effects are apparently developed better by oral administration than by intraperitoneal administration
Effect on hypothermia induced by apomorphine (mice [2]): antagonism of the hypothermia
Effect on convulsant effects of electric shock (mice [3]): at high doses, antagonism of the convulsant effects of electric shock
Effect on hypothermia induced by reserpine (mice [4]): antagonism of the hypothermia
Effect on ptosis induced by reserpine (mice [4]): slight antagonism of the ptosis induced by reserpine
Anticonvulsant effects (overall) (CNS [5]; conclusion of the tests): anticonvulsant effects
Antidepressant effects (overall) (CNS [5]; conclusion of the tests): more modest antidepressant effects; also recorded: antidepressant component
Stimulant effects (overall) (CNS [5]; conclusion of the tests): distinct stimulant effects; also recorded: behaves as a stimulant as from the weakest doses
α-adrenergic stimulant effects (overall) (CNS [5]; conclusion of the tests): moderate α-adrenergic stimulant effects
Peripheral α-adrenergic signs (mydriasis, salivation, lacrimation, exophthalmos) (CNS [5]; species and dose not stated): mydriasis (with neither piloerection nor salivation)
Overall behavior: observed effects (summary) (rats [6]): excitation and hyperreactivity in mice and rats
Stereotype movements (summary) (rats [6]): presence of stereotype movements
Motor recovery of mice after hypobaric hypoxia (mice [7]): improvement in the motor recovery of mice whose activity has been depressed following hypobaric hypoxia
Motor activity of mice accustomed to their enclosure (mice [8]): resumption in the activity of mice accustomed to their enclosure
Effect of alpha-methyltyrosine on the stereotypies induced by the substance [9]: differs from amphetamine in the mechanism of the effects which cause stereotypies
Effect on stereotypies induced by apomorphine (rats [10]): potentiation of the effects of apomorphine and amphetamine in rats
Effect on stereotypies induced by amphetamine (rats [11]): potentiation of the effects of apomorphine and amphetamine in rats
Particular toxicity to grouped mice (mice [12]): existence of a particular toxicity to grouped mice
Overall behavior: observed effects (summary) (mice [13]): excitation and hyperreactivity in mice and rats
Duration of the sleep induced by barbital (mice [14]): antagonism of the sleep induced by barbital
Period of immobility due to despair (mice [15]): reduction in the period of immobility
Effect on hypothermic action of oxotremorine (mice [16]): antagonism of the hypothermia
Affected foetuses, number ([17]; 5 mg/kg daily): 1
Total foetuses (live) ([17]; 5 mg/kg daily): 90
Affected foetuses, % ([17]; 5 mg/kg daily): 1.11%
Affected foetuses, number ([17]; 10 mg/kg daily): 1
Total foetuses (live) ([17]; 10 mg/kg daily): 83
Affected foetuses, % ([17]; 10 mg/kg daily): 1.20%
Affected foetuses, number ([17]; 50 mg/kg daily): 1
Total foetuses (live) ([17]; 50 mg/kg daily): 92
Affected foetuses, % ([17]; 50 mg/kg daily): 1.10%
Spontaneous motor activity (mice [18]): increase in the motor activity
